How the values were obtained:
Assay type in all cases: in vivo
[1] = tested on: mouse colon cancer cell strain MC38; experiment: Flow cytometric analysis of tumor infiltrating leucocytes in MC38 transplanted mice (Example 1); conditions: Day 7, tumor infiltrating leucocytes, Compound A 25 mg/kg/day po 6 days, Dunnett test
Description: The mouse colon cancer cell strain MC38 was obtained from Dr. Yoshihiro Hayakawa (University of Toyama, Toyama, Japan). The MC38 cell strain was subjected to culture in an RPMI 1640 medium containing 10% fetal bovine serum and then to subculture in an incubator at 37° C. in the presence of 5% CO2 at a frequency of once or twice a week.
The MC38 cell suspension was transplanted subcutaneously at 1.5×10^6 cells/0.1 ml to the right chest of 6-week-old C57BL/6JJcl mice (CLEA Japan, Inc.).
The tumor was grown until reaching a tumor volume (TV) of 80 to 230 mm^3 after the transplantation. Degimatic Caliper was used for tumor diameter measurement. The major diameter and the minor diameter of the tumor were measured, and TV was calculated from the following equation.
(§1) TV (mm^3)=major diameter (mm)×minor diameter (mm)×minor diameter (mm)/2
By a stratified random allocation method using TV as an index, 5 animals were allocated to each group. The day when grouping (n=5) was performed was defined as Day 0. […]
For detecting expression of immunity-related factors, flow cytometric analysis was performed for immunological monitoring. […] Thereafter, the isolated lymphocytes were stained with antibodies below, and then, analyzed using Flow Cytometer FACSVerse (BD Bioscience). […]

[2] = tested on: mouse colon cancer cell line MC38; experiment: Antitumor effect in MC38 transplanted wild type (immune proficient) C57BL/6JJcl mice (Example 2)
Description: (§2) The MC38 cell suspension was transplanted subcutaneously at 2.0×10^6 cells/0.1 ml to the right chest of 6-week-old C57BL/6JJcl mice (CLEA Japan, Inc.) or CB17/Icr-Prkdc[scid]/CrlCrlj (Charles River Laboratories Japan Inc.). CB17/Icr-Prkdc[scid]/CrlCrlj mice are mice with immune deficiency due to lack of Tcells and B-cells in the peripheral blood.
(§3) The tumor was grown until reaching a TV of 50 to 300 mm^3 after the transplantation. Degimatic Caliper was used for tumor diameter measurement. The major diameter and the minor diameter of the tumor were measured, and TV was calculated from the following equation.
as §1
(§4) By a stratified random allocation method using TV as an index, ten C57BL/6JJcl mice were allocated to each group, and five CB17/Icr-Prkdc [scid]/CrlCrlj mice were allocated to each group. The day when grouping was performed was defined as Day 0. An electronic balance for animals was used for body weight measurement. The body weight change ratio on the nth day (BWCn) was calculated from the body weight on the nth day (BWn) in accordance with the following equation.
(§5) Body weight change ratio BWCn (%)=(BWn−BW0)/BW0×100
(§6) An appropriate amount of water for injection described in the Japanese Pharmacopeia was added for adjusting hypromellose concentration to 0.5 w/v %, and the mixture was then stirred with a stirrer to completely dissolve hypromellose, to prepare a 0.5% aqueous hypromellose solution. Benzoic acid salt of Compound A was ground with an agate mortar, and then suspended to a predetermined concentration with the 0.5% aqueous hypromellose solution, and ultrasonic treatment was performed to obtain a homogeneous suspension. The suspension containing Compound A was orally administered once a day for 21 consecutive days at a dose of 25 mg/kg/day. The dosage is indicated based on the free form of the Compound A.

[3] = tested on: mouse colon cancer cell line MC38; experiment: Antitumor effect in MC38 transplanted immune deficient CB17/Icr-Prkdc[scid]/CrlCrlj mice (Example 2)
Description: as §2, §3, §1, §4, §5, §6

[4] = tested on: mouse colon cancer cell line MC38; experiment: Combination of Compound A and anti-mouse PD-1 antibody in MC38 transplanted wild type C57BL/6JJcl mice (Example 3); conditions: Aspin-Welch's t-test
Description: The MC38 cell suspension was transplanted subcutaneously at 2.0×10^6 cells/0.1 ml to the right chest of 6-week-old C57BL/6JJcl mice (CLEA Japan, Inc.).
as §3, §1
By a stratified random allocation method using TV as an index, 10 mice were allocated to each group. The day when grouping was performed was defined as Day 0.
An electronic balance for animals was used for body weight measurement. The body weight change ratio on the nth day (BWCn) was calculated from the body weight on the nth day (BWn) in accordance with the following equation.
as §5
An appropriate amount of water for injection described in the Japanese Pharmacopeia was added for adjusting hypromellose concentration to 0.5 w/v %, and the mixture was then stirred with a stirrer to completely dissolve hypromellose, to prepare a 0.5% aqueous hypromellose solution.
On the first day of administration (day 1), the diluted product was intraperitoneally administered with the dose of 0.05 mg/body of the anti-mouse PD-1 antibody.

[5] = wild type C57BL/6JJcl mice, 25.0 mg/kg/day qd Day 1-21 po
[6] = immune deficient CB17/Icr-Prkdc[scid]/CrlCrlj mice, 25.0 mg/kg/day qd Day 1-21 po

CC(C)(O)Cc1ccc(-c2ccc(C(=O)N3CC[C@H](N)C3)cc2-c2ccc(C#N)c(F)c2)c(F)c1 [Compound A, 4-[5-[(3S)-3-aminopyrrolidine-1-carbonyl]-2-[2-fluoro-4-(2-hydroxy-2-methyl-propyl)phenyl]phenyl]-2-fluoro-benzonitrile]
ratio of gMDSC (CD45 positive, CD90.2 negative, CD11b positive, Ly6G positive cells) in leucocytes as compared to the control group [1]: significantly lower
Body weight change Day 22 Mean ± SE [2, 5]: 2.6 ± 1.2%
Tumor volume Day 22 Mean ± SE [2, 5]: 969.3 ± 114.7 mm^3
antitumor effect: TV on Day 22 as compared to the control group ([2]; wild type mice, Aspin-Welch's t-test): significantly lower TV
Body weight change Day 22 Mean ± SE [3, 6]: 9.2 ± 4.2%
Tumor volume Day 22 Mean ± SE [3, 6]: 2431.6 ± 359.7 mm^3
antitumor effect: TV on Day 22 as compared to the control group ([3]; immune deficient mice, Aspin-Welch's t-test): didn't exhibit any antitumor effect
antitumor effect: TV on Day 22 as compared to the control group [4]: significantly lower TV

— patent US20250049757A1, “COMBINATORY THERAPY FOR CANCER USING BIPHENYL COMPOUND AND IMMUNE CHECKPOINT MOLECULE REGULATOR” (Taiho Pharmaceutical Co. Ltd., priority 2021, published 2025)
